Reference: US20050037067A1, “3,7-Diazabicyclo [3.3.1]formulations as anti-arrhythmic compounds” (priority 2001, published 2005)
Counter-ions that a name gives are not always drawn.

Assay: Solubility of the salt in vehicle compared to water alone
Type: physicochemical
Procedure: Salt was dissolved in the 40/60 (w/w %) hydroxypropyl-β-cyclodextrin/water vehicle.
The solubility of the salt was almost 40 times higher in this vehicle compared to water alone.
Salt was dissolved in PEG 400, ethanol and the surfactant Solutol™ (BASF; comprises polyethylene glycol esters of 12-OH-stearic acid). Water was added to the final volume. The solubility of the benzenesulphonate salt was approximately 4 times higher in this vehicle than it is in water alone.

## CC(C)(C)C(=O)CN1CC2CN(CCCNc3ccc(C#N)cc3)CC(C1)O2 [Compound A, benzenesulphonic acid salt, 4-({3-[7-(3,3-dimethyl-2-oxobutyl)-9-oxa-3,7-diazabicyclo[3.3.1]non-3-yl]propyl}amino)benzonitrile]
Vehicle Polyethyleneglycol 400/Ethanol/Solutol/Water (40/10/5/45 w/w %)
  solubility in vehicle compared to water alone: approximately 4 times
Vehicle hydroxypropyl-β-cyclodextrin/water (40/60 w/w %)
  solubility in vehicle compared to water alone: ~40 times
